Experiments:
[1] = tested on: zona pellucida of immature oocytes; test: sperm-zona pellucida binding assay (ZBA); assay type: cell-based, cynomolgus macaque
mature oocytes = test: in vitro fertilization (IVF) with treated sperm; assay type: cell-based, cynomolgus macaque; conditions: 1.5 mg/ml
sperm = sperm percent motility and progression scoring; assay type: cell-based, cynomolgus macaque; conditions: for effect on percentage of motile sperm and sperm progression: zona binding studies, 1.5 mg/ml, pre- or post-capacitation treatment
Protocol: Four adult male cynomolgus macaques which were caged individually at the California Regional Primate Research Center (CRPRC) in compliance with the Federal Animal Welfare Act and the NIH Guidelines for Care and Use of Laboratory Animals. The animals were maintained on a 12L:12D light cycle at 25-27° C. and were given a diet of Purina monkey chow and water ad libitum. Semen samples were collected by electroejaculation, e.g., as described in Sarason et al., The use of nonmetal electrodes in ejaculation of restrained but unanesthetized macaques, (1991) J. Med. Primatol., 20:122-125, into 15 ml centrifuge tubes containing 5 ml of Hepes-buffered BWW maintained at room temperature (RT). After 15-30 min, the coagulum was removed, the semen samples were further diluted with an additional 5 ml of Hepes-buffered BWW containing 3 mg/ml bovine serum albumin (BSA) and then concentrated into a 1 ml pellet by centrifugation at 300×g for 10 minutes. LSA (previously dissolved in hepes-buffered BWW salts) was added to half of the pellet to give a final concentration of 1.5 mg LSA/ml of sperm. An equal volume of hepes-buffered BWW salts was added to the other half of the pellet. Both aliquots were incubated at room temperature for 40 minutes and then washed and capacitated, e.g., as described in Tollner T L, et al., Soybean trypsin inhibitor as a probe for the acrosome reaction in motile cynomolgus macaque sperm (2000) Zygote 8:127-137. Briefly, sperm were centrifuged through 3.5 ml of 80% Percoll for 25 minutes at 400 g. The supernatant containing Percoll and any remaining sperm was removed and the sperm pellet was resuspended in bicarbonate-buffered BWW, e.g., as described in Overstreet et al., Penetration of human spermatozoa into the human zona pellucida and the zona-free hamster egg: a study of fertile donors and infertile patients, (1980), Fertil. Steril., 33:534-542; and, Overstreet et al., In vitro capacitation of human spermatozoa after passage through a column of cervical mucus, (1980) Fert. Steril., 34:604-606, containing 30 mg/ml of BSA. Sperm were washed two more times by centrifugation at 300 g for 10 minutes and dilution in this medium. […] Following activation, 200 sperm per treatment were scored for percent motility at 200× magnification with phase-contrast optics using a BH-2 series Olympus microscope. Progression was assessed with a 0-4 rating system (0=no progressive sperm; 1=1-25% of motile sperm have forward (space gaining) progressive motility; 2=26-50% of motile sperm have forward progressive motility; 3=51-75% of motile sperm have forward progressive motility; 4=76-100% of motile sperm have forward progressive motility).

[2] = oral; cited from earlier work
[3] = 1.5 mg/ml added post-capacitation (PC, Post-C), after activation
[4] = 1.5 mg/ml added pre-capacitation (Pre-C, pre-wash PW), prior to washing through Percoll and overnight incubation

| Substance | inhibition of sperm-zona binding as compared to controls [1, 3] [%] | inhibition of sperm-zona binding as compared to controls [1, 4] [%] | fertilization in IVF trials (mature oocytes; post-capacitation (Post-C, PC) treatment) | fertilization in IVF trials (mature oocytes; pre-capacitation (prewash, PW, Pre-C) treatment) | effect on sperm motility in IVF (sperm; IVF sperm preparations) | percentage of sperm developing hyperactivated motility patterns consistent with capacitation (sperm; LSA-treated and control sperm) [%] | effect on percentage of motile sperm and sperm progression (sperm) | LD50 [2] [mg/kg] | binding of treated sperm to the zona pellucida of immature oocytes (in words) ([1]; treatment post-capacitation (PC) or pre-wash (PW), FIG. 3) |
| --- | --- | --- | --- | --- | --- | --- | --- | --- | --- |
| Lignosulfonic acid [LSA] | 92.5 | 82.5 | blocked fertilization | blocked fertilization | no difference between treatments on sperm motility | > 75 | Neither the percentage of motile sperm or sperm progression were effected | > 40000 |  |
| polyanetholesulfonic acid [PASA] |  |  |  |  |  |  |  |  | inhibited their binding to the zona pellucida |
| Fucoidan [reference compound] | 91.5 | 36 |  |  |  |  | No motility changes were observed |  |  |

From patent US20030134803A1, “Use of sulfonated compounds as a barrier contraceptive” (The Regents of the University of California, priority 2002, published 2003)
